Several values for one entry are separate records, joined by “and”; a condition that tells them apart may be missing. Identical values can stand only once. Like-named read-outs stand apart in the source and are kept apart here. Bridge positions count the residues as written; N and C are the ends. Square brackets hold non-standard residues; d marks the D form. Peptide text beside a SMILES is read from it. * marks the point of attachment. Octanoyl = CCCCCCCC(=O)*; βAla = NCCC(=O)O
Assays:
EphA4 Fc [1] = test: ELISA measuring inhibition of ephrin-A5 AP binding to immobilized EphA4 Fc; design: species or system human or mouse
[2] = In vivo half-life: active compound remaining in mouse blood, deduced from apparent IC50 of plasma in the EphA4-ephrinA5 ELISA; details: mouse, mouse; for blood concentration: 0.8 mg/mouse
Method: To examine the persistence of compounds in the blood circulation, an approach was devised to determine the concentration of compound in mouse blood by taking advantage of the ELISA measuring inhibition of EphA4-ephrinA5 interaction.
Lipidated compounds dissolved in DMSO were diluted in […] PBS (to a 5% final DMSO concentration) or in […] PBS supplemented with 20 or 40 mg/mL BSA or 6.5 mM methyl-β-cyclodextrin for intravenous or intraperitoneal injection. Neutral pH of the compound solution was verified before injection. PEGylated compounds were dissolved in […] PBS before intraperitoneal injection. Peptides were sterile filtered before administration. Blood from each mouse was collected at 3 different time points after compound injection, the first 2 times by retro-orbital bleeding and the third time by terminal cardiac bleeding under deep anesthesia. Red blood cells were removed by centrifugation from blood treated with heparin and the resulting plasma was frozen in aliquots.
For each time point, a dose-response curves by measuring inhibition of EphA4-ephrinA5 binding at different plasma dilutions was obtained.

[3] = Solubility of lipidated compounds; type: physicochemical
EphA4 Fc [4] = test: ELISA inhibition of ephrin-A5 AP binding to EphA4 Fc in the presence of HSA, BSA or methyl-β-cyclodextrin; details: for effect of HSA on potency: presence vs absence of 40 mg/mL HSA, tested in parallel; for IC50: read-out: IC50 ± SE (n) by ELISA with HSA or BSA
Text: To determine whether albumin binding to the lipidated compounds affects their ability to bind EphA4, the effects of delipidated human serum albumin (HSA) on the inhibitory potency of some of the compounds were examined.

EphA4 = target: T1, EphA4 (Homo sapiens, UniProt P54764); test: EphA4 Y596 phosphorylation (activation) in cells stimulated with ephrinA5-Fc; type: cell-based; details: EphA4 tyrosine phosphorylation in cells stimulated with ephrin-A5
T1 construct: expressed in transfected cells; host or cells: HEK-EphA4 cells (immortalized cells stably transfected)
Method: Immortalized cells stably transfected to express FLAG-tagged EphA4 were cultured at 37° C. in Dulbecco's Modified Eagle Medium (DMEM; #10-013-CV, Corning/Thermo Fisher Scientific) containing 10% fetal bovine serum (FBS) with 1% antibiotic-antimycotic solution (#30-004-Cl, Corning). To assess inhibition of EphA4 activation by compounds in cells, the cells were plated in 48-well plates.
For ELISAs, high binding capacity polystyrene 96-well plates were coated overnight at 4° C. with 1 μg/mL goat anti-FLAG antibody (#F3165, Sigma-Aldrich) in 50 μL/well borate buffer (0.1 M boric acid, 0.1 M Na borate, pH 8.7). […] OD450 was then measured.

[5] = ELISA inhibition of EphA4-ephrin-A5 interaction
[6] = ELISA inhibition of EphA4-ephrin-A5 interaction, read-out: IC50 (approximate)
[7] = in vivo, ip, IP (intraperitoneal administration), read-out: In vivo half-life (converted)
[8] = inhibition of ephrin-A5 AP binding to EphA4 Fc, averages of all experiments, read-out: IC50 ± SE (n) by ELISA
[9] = in vivo, iv, IV (intravenous administration), read-out: In vivo half-life (converted)

T1 sequence (P54764 20-986, species assumed): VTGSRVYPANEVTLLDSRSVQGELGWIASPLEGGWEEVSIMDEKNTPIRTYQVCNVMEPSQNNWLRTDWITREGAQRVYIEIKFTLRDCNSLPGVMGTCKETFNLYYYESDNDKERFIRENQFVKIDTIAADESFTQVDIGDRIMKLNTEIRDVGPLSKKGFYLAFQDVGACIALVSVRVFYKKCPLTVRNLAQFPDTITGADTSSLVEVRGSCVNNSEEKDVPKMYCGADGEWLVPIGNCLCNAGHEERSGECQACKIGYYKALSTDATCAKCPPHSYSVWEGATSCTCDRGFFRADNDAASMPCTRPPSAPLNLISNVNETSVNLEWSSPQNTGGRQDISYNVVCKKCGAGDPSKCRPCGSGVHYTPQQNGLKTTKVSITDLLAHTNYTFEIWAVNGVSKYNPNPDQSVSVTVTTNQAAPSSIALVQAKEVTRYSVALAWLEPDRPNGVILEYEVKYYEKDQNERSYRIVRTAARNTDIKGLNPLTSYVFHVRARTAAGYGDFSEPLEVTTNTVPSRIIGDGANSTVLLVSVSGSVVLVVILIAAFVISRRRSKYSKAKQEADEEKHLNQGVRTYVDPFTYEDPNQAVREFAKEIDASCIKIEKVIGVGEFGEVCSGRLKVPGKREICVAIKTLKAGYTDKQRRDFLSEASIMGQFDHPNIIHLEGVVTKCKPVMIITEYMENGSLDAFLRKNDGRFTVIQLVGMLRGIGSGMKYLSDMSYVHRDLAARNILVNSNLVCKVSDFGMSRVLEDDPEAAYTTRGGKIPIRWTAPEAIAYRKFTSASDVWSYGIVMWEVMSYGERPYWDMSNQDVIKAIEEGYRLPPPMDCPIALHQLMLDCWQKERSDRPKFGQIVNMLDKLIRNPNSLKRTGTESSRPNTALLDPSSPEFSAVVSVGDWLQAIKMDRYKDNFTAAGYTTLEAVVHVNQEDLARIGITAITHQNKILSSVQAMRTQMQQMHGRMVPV

| half-life [2, 7] [min] | IC50 (EphA4 Fc [1]; [8]) [µM] | IC50 (EphA4 Fc [4]; 40 mg/mL delipidated HSA) [µM] | half-life [2, 9] [min] | Compound | potency compared with APY-d3 (EphA4 Fc [1]; [5]) | IC50 (EphA4 Fc [1]; [6]) | effect of HSA on potency (EphA4 Fc [4]) | other results |
| --- | --- | --- | --- | --- | --- | --- | --- | --- |
| ~40 | 0.018 ± 0.004 | – | – | CC[C@H](C)[C@H](NC(=O)[C@H](CC(C)C)NC(=O)[C@H](CCCNC(=N)N)NC(=O)[C@@H]1CSSC[C@H](NC(=O)[C@H](Cc2ccc(O)cc2)NC(=O)[C@@H]2CCCN2C(=O)CCN)C(=O)N[C@@H](C(C)C)C(=O)N[C@@H](Cc2ccc(O)cc2)C(=O)N[C@@H](CCCNC(=N)N)C(=O)NCCC(=O)N[C@@H](CO)C(=O)N[C@@H](Cc2c[nH]c3ccccc23)C(=O)N[C@@H](CO)C(=O)N1)C(=O)N[C@@H](CCC(=O)O)C(=O)N[C@@H](CC(=O)O)C(=O)N[C@H](C(=O)N[C@H]1CSSC[C@@H](C(=O)N[C@@H](CC(C)C)C(=O)N[C@@H](Cc2c[nH]c3ccccc23)C(=O)N[C@@H](CCC(=O)O)C(=O)N[C@@H](CC(=O)O)C(=O)N[C@@H](CC(=O)O)C(N)=O)NC(=O)CNC(=O)[C@H](Cc2c[nH]c3ccccc23)NC(=O)[C@H](CCCNC(=N)N)NC(=O)[C@@H]2CCCN2C(=O)[C@H](CC(C)C)NC1=O)[C@@H](C)CC [Compound 21] (H-[βAla]PYCVYR[βAla]SWSCRLIEDICLPRWGCLWEDD-NH2; disulfide 4-12, 19-25) | as potent as APY-d3 | – | – | decrease in potency in the presence of bovine serum albumin (EphA4 Fc [4]; 20 mg/mL bovine serum albumin): ~8 fold; IC50 (EphA4 Fc [4]; 20 mg/ml BSA): 0.13 ± 0.01 µM |
| ~120 | 0.077 ± 0.009 | 1.37 | – | CCCCCCCCCCCCCC(=O)N[C@@H](CCC(=O)N[C@@H](CCC(=O)NCCCC[C@H](NC(=O)CNC(=O)CNC(=O)[C@@H]1CSSC[C@H](NC(=O)[C@H](Cc2ccc(O)cc2)NC(=O)[C@@H]2CCCN2C(=O)CCN)C(=O)N[C@@H](C(C)C)C(=O)N[C@@H](Cc2ccc(O)cc2)C(=O)N[C@@H](CCCNC(=N)N)C(=O)NCCC(=O)N[C@@H](CO)C(=O)N[C@@H](Cc2c[nH]c3ccccc23)C(=O)N[C@@H](CO)C(=O)N1)C(=O)NCC(N)=O)C(=O)O)C(=O)O [Compound 16] | – | ~0.08 µM | dramatically decreased | decrease in potency compared to compound 15 (EphA4 Fc [1]; C14 myristoyl vs C12 lipid, γGluγGlu spacer): 2-3 fold; effect of methyl-β-cyclodextrin on inhibitory potency (EphA4 Fc [4]; 6.5 mM methyl-β-cyclodextrin vs buffer): does not affect the inhibitory potency |
| – | 0.026 ± 0.005 | 0.075 ± 0.024 | < 10 | CCCCCCCC(=O)NCCCC[C@@H]1NC(=O)[C@H](Cc2ccc(O)cc2)NC(=O)[C@H](C(C)C)NC(=O)[C@@H](NC(=O)[C@H](Cc2ccc(O)cc2)NC(=O)[C@@H]2CCCN2C(=O)CCN)CSSC[C@@H](C(=O)NCC(=O)NCC(=O)N[C@@H](CCCNC(=N)N)C(=O)NCC(N)=O)NC(=O)[C@H](CO)NC(=O)[C@H](Cc2c[nH]c3ccccc23)NC(=O)[C@H](CO)NC(=O)CCNC1=O [Compound 5] (H-[βAla]PYCVYK(Octanoyl)[βAla]SWSCGGRG-NH2; disulfide 4-12) | – | – | – | % of compound remaining in the blood ([2]; 10 min after intravenous injection, in PBS with 5% DMSO): 5% |
| – | – | – | – | [Cyc (4,12)] H2N-(βA)PYCVYR(βA)SWSC(Ahx)(Ahx)(Ahx)(Pra/mPEG30-triazole)-OH (XPYCVYRXSWSCXXX; non-natural residues; cyclised or stapled) [APY-d3-PEG4] | – | – | – | t1/2 in mouse circulation ([2]; in vivo): ~660 min; blood concentration ([2]; in vivo, ip): ~9000 nM; blood concentration ([2]; in vivo, ip, 20 h): ~3000 nM; blood concentration ([2]; in vivo, ip, 48 h): ~400 nM; inhibitory potency lower than that of APY-d3 (EphA4): 2-3 fold |
| – | 0.24 ± 0.03 | 0.92 ± 0.18 | 30 to 42 | CCCCCCCCCCCC(=O)NCCCC[C@H](NC(=O)CNC(=O)CNC(=O)[C@@H]1CSSC[C@H](NC(=O)[C@H](Cc2ccc(O)cc2)NC(=O)[C@@H]2CCCN2C(=O)CCN)C(=O)N[C@@H](C(C)C)C(=O)N[C@@H](Cc2ccc(O)cc2)C(=O)N[C@@H](CCCNC(=N)N)C(=O)NCCC(=O)N[C@@H](CO)C(=O)N[C@@H](Cc2c[nH]c3ccccc23)C(=O)N[C@@H](CO)C(=O)N1)C(=O)NCC(N)=O [Compound 12] | – | – | – | In vivo half-life ([2]; IV (intravenous administration)): ~30 min |

| Compound | half-life [2, 7] [min] | IC50 (EphA4 Fc [1]; [8]) [µM] | IC50 (EphA4 Fc [4]; 40 mg/mL delipidated HSA) [µM] | half-life [2, 9] [min] | potency compared with APY-d3 (EphA4 Fc [1]; [5]) | IC50 (EphA4 Fc [1]; [6]) | effect of HSA on potency (EphA4 Fc [4]) | other results |
| --- | --- | --- | --- | --- | --- | --- | --- | --- |
| CCCCCCCCCCCC(=O)N[C@@H](CCC(=O)N[C@@H](CCC(=O)NCCCC[C@H](NC(=O)CNC(=O)CNC(=O)[C@@H]1CSSC[C@H](NC(=O)[C@H](Cc2ccc(O)cc2)NC(=O)[C@@H]2CCCN2C(=O)CCN)C(=O)N[C@@H](C(C)C)C(=O)N[C@@H](Cc2ccc(O)cc2)C(=O)N[C@@H](CCCNC(=N)N)C(=O)NCCC(=O)N[C@@H](CO)C(=O)N[C@@H](Cc2c[nH]c3ccccc23)C(=O)N[C@@H](CO)C(=O)N1)C(=O)NCC(N)=O)C(=O)O)C(=O)O [Compound 15] | 30 to 60 | – | – | – | comparable to APY-d3 | ~0.05 µM and ~0.03 µM | dramatically decreased | half-life ([2]; in vivo, read-out: t1/2 in mouse circulation): ~40 min; solubility [3]: acceptable solubility |

From US20260139007A1, “EPHA4 ANTAGONISTS AND USES THEREOF” (SANFORD BURNHAM PREBYS MEDICAL DISCOVERY INSTITUTE, priority 2023, published 2026)
